Measurements as given in patent publication US9669034B2, “4-aryl-N-phenyl-1,3,5-triazin-2-amines containing a sulfoximine group” (BAYER INTELLECTUAL PROPERTY GMBH, priority 2011, dated 2017).
Values after ≈ are worked out from the molar mass of the structure shown. Read-outs that look alike come from different tables or passages of the source.

Columns and labels:
CDK9/CycT1 = CDK9/CycT1 (Homo sapiens (Human), UniProt P50750); experiment: CDK9/CycT1 kinase assay (TR-FRET); assay type: biochemical; settings: Method 1
Chain of CDK9/CycT1 (P50750 whole entry): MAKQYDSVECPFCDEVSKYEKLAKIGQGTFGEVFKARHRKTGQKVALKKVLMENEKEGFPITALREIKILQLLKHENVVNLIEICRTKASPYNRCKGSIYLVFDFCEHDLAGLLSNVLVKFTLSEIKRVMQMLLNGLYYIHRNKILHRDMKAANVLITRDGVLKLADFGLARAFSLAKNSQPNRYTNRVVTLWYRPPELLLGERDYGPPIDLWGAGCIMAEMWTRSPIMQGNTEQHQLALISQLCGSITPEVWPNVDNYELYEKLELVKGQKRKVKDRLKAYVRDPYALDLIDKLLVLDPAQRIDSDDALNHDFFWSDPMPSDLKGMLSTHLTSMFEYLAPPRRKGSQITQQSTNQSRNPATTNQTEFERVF
Chain of CDK9/CycT1 (O60563 whole entry partner): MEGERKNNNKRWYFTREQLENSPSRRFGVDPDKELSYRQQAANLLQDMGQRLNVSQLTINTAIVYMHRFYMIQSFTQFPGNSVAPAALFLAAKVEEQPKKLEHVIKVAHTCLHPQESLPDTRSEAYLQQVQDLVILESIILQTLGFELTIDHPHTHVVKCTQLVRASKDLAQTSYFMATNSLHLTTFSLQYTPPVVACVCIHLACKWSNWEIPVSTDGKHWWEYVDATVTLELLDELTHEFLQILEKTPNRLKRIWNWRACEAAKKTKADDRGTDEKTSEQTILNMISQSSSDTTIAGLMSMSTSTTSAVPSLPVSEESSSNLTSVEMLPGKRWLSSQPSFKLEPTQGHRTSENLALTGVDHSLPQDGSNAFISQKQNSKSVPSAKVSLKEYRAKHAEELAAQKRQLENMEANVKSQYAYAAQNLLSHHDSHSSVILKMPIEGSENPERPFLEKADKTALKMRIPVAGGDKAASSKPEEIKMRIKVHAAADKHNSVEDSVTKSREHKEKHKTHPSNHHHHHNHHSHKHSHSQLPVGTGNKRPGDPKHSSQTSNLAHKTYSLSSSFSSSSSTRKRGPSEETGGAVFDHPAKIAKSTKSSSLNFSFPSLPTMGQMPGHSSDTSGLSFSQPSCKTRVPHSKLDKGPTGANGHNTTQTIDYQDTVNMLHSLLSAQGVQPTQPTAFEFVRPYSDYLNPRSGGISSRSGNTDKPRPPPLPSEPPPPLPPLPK
Procedure, shortened: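 TR-FRET read-out of kinase inhibition, with a biotin-Ttds-tagged peptide as substrate. Enzyme: human CDK9 and CycT1, full-length with His tags, produced in insect cells and purified on Ni-NTA.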

CDK2/CycE = CDK2/CycE (Homo sapiens (Human), UniProt P24941); experiment: CDK2/CycE kinase assay (TR-FRET); assay type: biochemical; settings: Method 2
Procedure, shortened: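 TR-FRET measurement of inhibition of phosphorylation of a biotinylated peptide substrate. Enzyme complex consisted of human CDK2 and CycE, each as a GST fusion made in Sf9 cells and purified over glutathione-Sepharose.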

[1] = Equilibrium shake flask solubility assay; assay type: physicochemical; settings: pH 6.5, equilibrium shake flask method; for solubility thermodynamic at 24 h: phosphate buffer, pH 6.5, aqueous buffer, thermodynamic from solid, water
Description: 4. Equilibrium Shake Flask Solubility Assay:
The thermodynamic solubility of compounds in water was determined by an equilibrium shake flask method (see for example: E. H. Kerns, L. Di: Drug-like Properties: Concepts, Structure Design and Methods, 276-286, Burlington, Mass., Academic Press, 2008). A saturated solution of the drug was prepared and the solution was mixed for 24 h to ensure that equilibrium was reached. The solution was centrifuged to remove the insoluble fraction and the concentration of the compound in solution was determined using a standard calibration curve.
To prepare the sample, 2 mg solid compound was weighed in a 4 mL glass vial. 1 mL phosphate buffer pH 6.5 was added. The suspension was stirred for 24 hrs at room temperature. The solution was centrifuged afterwards. To prepare the sample for the standard calibration, 2 mg solid sample was dissolved in 30 mL acetonitrile. After sonification the solution was diluted with water to 50 mL. Sample and standards were quantified by HPLC with UV-detection. For each sample two injection volumes (5 and 50 μl) in triplicates were made. Three injection volumes (5 μl, 10 μl and 20 μl) were made for the standard.
Chromatographic Conditions:
The areas of sample- and standard injections as well as the calculation of the solubility value (in mg/l) were determined by using HPLC software (Waters Empower 2 FR).

[2] = tested on: HeLa human cervical tumour cells; experiment: Proliferation assay (crystal violet), HeLa; assay type: cell-based; settings: Method 3, read-out: Inhibition of HeLa cell proliferation, IC50
Procedure, shortened: (§1)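 First, plate 3000 (NCI-H460, HeLa), 5000 (HeLa-MaTu-ADR) or 1500 (Caco-2) cells per well; next day, fix and stain a reference plate while the others get fresh medium containing compound at […] with 0.5% DMSO; after 4 days, fix, stain with crystal violet and read at 595 nm.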

[3] = tested on: HeLa-MaTu-ADR, multidrug-resistant human cervical carcinoma cells; experiment: Proliferation assay (crystal violet), HeLa-MaTu-ADR; assay type: cell-based; settings: Method 3, read-out: Inhibition of HeLa/MaTu/ADR cell proliferation, IC50
Procedure, shortened: as §1

[4] = tested on: NCI-H460, human non-small cell lung carcinoma cells; experiment: Proliferation assay (crystal violet), NCI-H460; assay type: cell-based; settings: Method 3, read-out: Inhibition of NCI-H460 cell proliferation, IC50
Procedure, shortened: as §1

[5] = tested on: DU145, hormone-independent human prostate carcinoma cells; experiment: Proliferation assay (crystal violet), DU145; assay type: cell-based; settings: Method 3, read-out: Inhibition of DU145 cell proliferation, IC50
Procedure, shortened: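 Proliferation of DU145 cells was measured with crystal violet. Cells were fixed with 20 μL 11% glutaric aldehyde for 15 minutes, washed, dried, stained with 100 μL 0.1% crystal violet (pH 3.0), washed again, and the dye was dissolved in 10% acetic acid. Absorbance at 595 nm was normalized to the zero-point plate and untreated cells, and IC50 came from a 4 parameter fit.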

[6] = tested on: Caco-2 human colorectal carcinoma; experiment: Proliferation assay (crystal violet), Caco-2; assay type: cell-based; settings: Method 3, read-out: Inhibition of Caco-2 cell proliferation, IC50
Procedure, shortened: as §1

[7] = tested on: B16F10 mouse melanoma cells; experiment: Proliferation assay (crystal violet), B16F10; assay type: cell-based; settings: Method 3, read-out: Inhibition of B16F10 cell proliferation, IC50
Procedure, shortened: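 Proliferation was read out by crystal violet staining. Cells were fixed for 15 minutes at room temperature with 20 μL of 11% glutaric aldehyde, washed three times with water, dried, and stained with 100 μL of 0.1% crystal violet (pH 3.0). After washing and drying, the dye was dissolved in 100 μL of 10% acetic acid and absorbance measured at 595 nm. Values were normalized to the zero-point plate (0%) and untreated cells (100%), and IC50 was obtained by a 4 parameter fit.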

[8] = Homo sapiens, NCI-H460, NCI-H460 cells
[9] = Homo sapiens, DU-145, DU145 cells
[10] = Homo sapiens, Caco-2, Caco-2 cells
[11] = Mus musculus, B16-F10, B16F10 cells

SMILES: COc1ccc(F)cc1-c1ncnc(Nc2cccc(CS(C)(=N)=O)c2)n1 (single isomer, unassigned) [Example 22, 4-(5-Fluoro-2-methoxyphenyl)-N-{3-[(S-methylsulfonimidoyl)methyl]phenyl}-1,3,5-triazin-2-amine]
- IC50 (CDK9/CycT1): 0.091 µM
- IC50 (CDK2/CycE): 2.8 µM
- solubility thermodynamic at 24 h [1]: 0.787 mg/mL (≈ 2030 µM)

SMILES: COc1ccc(F)cc1-c1ncnc(Nc2cccc(CS(C)(=N)=O)c2)n1 (single isomer, unassigned) [Example 23, 4-(5-Fluoro-2-methoxyphenyl)-N-{3-[(S-methylsulfonimidoyl)methyl]phenyl}-1,3,5-triazin-2-amine]
- IC50 (CDK9/CycT1): 0.11 µM
- IC50 (CDK2/CycE): 5.6 µM
- Thermodynamic solubility in water at pH 6.5 [1]: 888 mg/l

SMILES: CS(=N)(=O)Cc1cccc(Nc2ncnc(-c3cccc4c3OCCC4)n2)c1 (single isomer, unassigned) [Example 31, 4-(3,4-Dihydro-2H-chromen-8-yl)-N-{3-[(S-methylsulfonimidoyl)methyl]phenyl}-1,3,5-triazin-2-amine]
- IC50 (CDK2/CycE): 0.67 µM
- solubility thermodynamic at 24 h [1]: 1 mg/mL (≈ 2530 µM)

SMILES: CS(=N)(=O)Cc1cccc(Nc2ncnc(-c3cccc4c3OCCC4)n2)c1 (single isomer, unassigned) [Example 32, 4-(3,4-Dihydro-2H-chromen-8-yl)-N-{3-[(S-methylsulfonimidoyl)methyl]phenyl}-1,3,5-triazin-2-amine]
- IC50 (CDK2/CycE): 1.6 µM
- Thermodynamic solubility in water at pH 6.5 [1]: 1000 mg/l

SMILES: COc1cc(F)ccc1-c1ncnc(Nc2cc(F)cc(CS(C)(=N)=O)c2)n1 (single isomer, unassigned) [Example 54, 4-(4-Fluoro-2-methoxyphenyl)-N-{3-fluoro-5-[(S-methylsulfonimidoyl)methyl]phenyl}-1,3,5-triazin-2-amine]
- IC50 (CDK2/CycE): 0.85 µM
- solubility thermodynamic at 24 h [1]: 0.12 mg/mL (≈ 296 µM)

SMILES: C#CCOc1cc(F)ccc1-c1ncnc(Nc2cccc(CS(C)(=N)=O)c2)n1 (single isomer, unassigned) [Example 78, 4-[4-Fluoro-2-(prop-2-yn-1-yloxy)phenyl]-N-{3-[(S-methylsulfonimidoyl)methyl]phenyl}-1,3,5-triazin-2-amine]
- IC50 (CDK9/CycT1): 0.009 µM
- IC50 (CDK2/CycE): 0.58 µM
- IC50 ([2]; Homo sapiens, HeLa): 0.65 µM
- IC50 ([3]; Homo sapiens, HeLa): 0.26 µM
- IC50 [4, 8]: 0.39 µM
- IC50 [5, 9]: 0.37 µM
- IC50 [6, 10]: 0.76 µM
- IC50 [7, 11]: 0.5 µM

SMILES: C#CCOc1cc(F)ccc1-c1ncnc(Nc2cccc(CS(C)(=N)=O)c2)n1 (single isomer, unassigned) [Example 79, 4-[4-Fluoro-2-(prop-2-yn-1-yloxy)phenyl]-N-{3-[(S-methylsulfonimidoyl)methyl]phenyl}-1,3,5-triazin-2-amine]
- IC50 (CDK9/CycT1): 0.005 µM
- IC50 (CDK2/CycE): 0.44 µM
- IC50 [2]: 0.44 µM
- IC50 [3]: 0.35 µM
- IC50 ([4]; NCI-H460 cells): 0.42 µM
- IC50 ([5]; DU145 cells): 0.38 µM
- IC50 ([6]; Caco-2 cells): 0.39 µM
- IC50 ([7]; B16F10 cells): 0.37 µM

SMILES: CS(=N)(=O)Cc1cccc(Nc2ncnc(-c3ccc(F)cc3OCc3ccnc(F)c3)n2)c1 (single isomer, unassigned) [Example 83, 4-{4-Fluoro-2-[(2-fluoropyridin-4-yl)methoxy]phenyl}-N-{3-[(S-methylsulfonimidoyl)methyl]phenyl}-1,3,5-triazin-2-amine]
- IC50 (CDK9/CycT1): 0.002 µM
- IC50 (CDK2/CycE): 0.27 µM
- IC50 ([2]; Homo sapiens, HeLa): 0.11 µM
- IC50 ([3]; Homo sapiens, HeLa): 0.64 µM
- IC50 [4, 8]: 0.18 µM
- IC50 [5, 9]: 0.18 µM
- IC50 [6, 10]: 0.21 µM
- IC50 [7, 11]: 0.22 µM

SMILES: CS(=N)(=O)Cc1cccc(Nc2ncnc(-c3ccc(F)cc3OCc3ccnc(F)c3)n2)c1 (single isomer, unassigned) [Example 84, 4-{4-Fluoro-2-[(2-fluoropyridin-4-yl)methoxy]phenyl}-N-{3-[(S-methylsulfonimidoyl)methyl]phenyl}-1,3,5-triazin-2-amine]
- IC50 (CDK9/CycT1): 0.003 µM
- IC50 (CDK2/CycE): 0.22 µM
- IC50 [2]: 0.12 µM
- IC50 [3]: 0.34 µM
- IC50 ([4]; NCI-H460 cells): 0.18 µM
- IC50 ([5]; DU145 cells): 0.18 µM
- IC50 ([6]; Caco-2 cells): 0.18 µM
- IC50 ([7]; B16F10 cells): 0.21 µM
